According to patent US7851473B2, “Amide compound” (Takeda Pharmaceutical Company Limited, priority 2004, dated 2010):
Where a name gives a salt, the structure may show the parent alone.

Target: T1, human FAAH (Homo sapiens, UniProt O00519)
T1 construct: made in house; 10000 g pellet suspended in M-PER
T1 sequence (O00519 1-579): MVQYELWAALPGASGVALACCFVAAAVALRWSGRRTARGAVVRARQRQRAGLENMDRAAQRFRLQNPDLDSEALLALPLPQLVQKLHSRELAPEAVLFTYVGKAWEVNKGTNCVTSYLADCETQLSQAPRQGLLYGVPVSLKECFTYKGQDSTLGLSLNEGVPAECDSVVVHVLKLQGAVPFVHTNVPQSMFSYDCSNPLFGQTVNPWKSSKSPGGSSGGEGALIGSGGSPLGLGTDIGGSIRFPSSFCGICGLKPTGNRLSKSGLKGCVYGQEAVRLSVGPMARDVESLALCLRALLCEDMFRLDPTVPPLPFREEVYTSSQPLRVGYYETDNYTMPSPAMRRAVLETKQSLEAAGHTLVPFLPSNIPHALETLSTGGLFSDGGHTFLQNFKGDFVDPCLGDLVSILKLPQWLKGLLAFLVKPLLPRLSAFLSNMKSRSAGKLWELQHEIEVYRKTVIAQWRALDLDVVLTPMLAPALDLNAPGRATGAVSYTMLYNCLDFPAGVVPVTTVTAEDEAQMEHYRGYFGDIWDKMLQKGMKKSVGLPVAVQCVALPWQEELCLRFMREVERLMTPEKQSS
Assay: Measurement of FAAH inhibitory activity (anandamide [ethanolamine 1-3H] hydrolysis, filter plate)
Assay type: biochemical
Details: test compound 1 μM; CHO-K1/human FAAH enzyme fraction; anandamide 25 nM; 37° C., 30 minutes; read-out: Human FAAH Inhibition Rate at 1 μM (%)
Description: (1) Preparation of Enzyme Fraction
The FAAH gene was cloned by PCR. That is, a human brain library was used as a cDNA library, 5′-[…]-3′ [SEQ ID NO:1] and 5′-[…]-3′ [SEQ ID NO:2] were used as a primer set, and KOD DNA polymerase (Toyobo Co., Ltd.) was used as a DNA polymerase. One cycle of the reaction comprises 95° C. for 30 sec, 55° C. for 30 sec and 72° C. for 2 min, and 45 cycles of the reaction was carried out to obtain an amplified fragment. The amplified fragment was cleaved with restriction enzymes EcoRI and SalI, and then was inserted into a pMSRα vector which had been cleaved with the same restriction enzymes EcoRI and SalI to obtain a pMSRα-human FAAH. A cell line CHO-K1 and the above-obtained plasmid were subjected to a method known per se to prepare the cell line CHO-K1/human FAAH in which human FAAH was stably expressed. The CHO-K1/human FAAH was cultured in a CO2 incubator at 37° C., using a medium (Ham's F-12 medium supplemented with final concentration 10% of fetal bovine serum (FBS) and final concentration 800 μg/ml of G418), and then the cells were harvested. After washing with PBS, the cells were suspended in a buffer (10 mM Tris, 1 mM EDTA and 10 mM MgCl2, all at final concentrations) and disrupted with a Polytron homogenizer. After centrifugation at 900 g, the supernatant was recovered and further centrifuged at 10000 g. A pellet obtained therefrom was suspended in M-PER (Catalog No. 78501; PIERCE) to give an enzyme fraction.
Using a white walled 96-well plate (Coster Corp.), the test compound at various concentrations, 60 ng of the enzyme fraction and the substrate anandamide [ethanolamine 1-^3H] (final concentration 25 nM) were reacted in 50 μl of a reaction buffer (125 mM Tris-HCl (pH 9.0), 1 mM EDTA, 0.4 mM HEPES, 0.2% glycerol and 0.02% Triton X-100, all at final concentrations) at 37° C. for 30 minutes. The reaction mixture was transferred to a 96-well MultiScreen-HA filter plate (Millipore Corp.) and then was left to stand overnight at room temperature in order to allow the unreacted substrate to be adsorbed on the filter. The plate was washed with PBS using a MultiScreen Vacuum Manifold (Millipore Corp.) and dried. To each well, 50 μl of liquid scintillation cocktail was added and stirred, and then counting was performed with a TopCount (Perkin-Elmer Corp.). The count of a sample containing a solvent instead of the test compound was taken as 0%, and the count at zero time was taken as 100%, to calculate the inhibitory activity of the compound.

SMILES | inhibition at 1 µM
O=C(Nc1cccnn1)N1CCN(c2nc(-c3cccc(F)c3F)cs2)CC1 [Example 272, 4-[4-(2,3-Difluorophenyl)-1,3-thiazol-2-yl]-N-pyridazin-3-ylpiperazine-1-carboxamide] | 102%
O=C(Nc1ccc2[nH]nnc2c1)N1CCN(c2nc(-c3ccccc3)ns2)CC1 [Example 71, N-1H-1,2,3-Benzotriazol-5-yl-4-(3-phenyl-1,2,4-thiadiazol-5-yl)piperazine-1-carboxamide] | 108%
O=C(Nc1noc2ccccc12)N1CCN(c2nc(-c3ccccc3)co2)CC1 [Example 23, N-1,2-Benzisoxazol-3-yl-4-(4-phenyl-1,3-oxazol-2-yl)piperazine-1-carboxamide] | 100%
CCc1sc(N2CCN(C(=O)Nc3ccc(NC(C)=O)nc3)CC2)nc1-c1ccccc1 [Example 226, N-[6-(Acetylamino)pyridin-3-yl]-4-(5-ethyl-4-phenyl-1,3-thiazol-2-yl)piperazine-1-carboxamide] | 104%
O=C(Nc1noc2ccccc12)N1CCN(c2nc(-c3ccccc3)no2)CC1 [Example 22, N-1,2-Benzisoxazol-3-yl-4-(3-phenyl-1,2,4-oxadiazol-5-yl)piperazine-1-carboxamide] | 94%
O=C(Nc1cccnc1)N1CCN(c2nc(-c3ccccc3)ns2)CC1 [Example 85, 4-(3-Phenyl-1,2,4-thiadiazol-5-yl)-N-pyridin-3-ylpiperazine-1-carboxamide hydrochloride] | 100%
CC(C)c1nsc(N2CCN(C(=O)Nc3noc4ccccc34)CC2)n1 [Example 9, N-1,2-Benzisoxazol-3-yl-4-(3-isopropyl-1,2,4-thiadiazol-5-yl)piperazine-1-carboxamide] | 98%
O=C(Nc1noc2ccccc12)N1CCN(c2nc(-c3ccccn3)ns2)CC1 [Example 15, N-1,2-Benzisoxazol-3-yl-4-(3-pyridin-2-yl-1,2,4-thiadiazol-5-yl)piperazine-1-carboxamide] | 102%
O=C(Nc1cccnn1)N1CCN(c2nc(-c3ccccc3)ns2)CC1 [Example 147, 4-(3-Phenyl-1,2,4-thiadiazol-5-yl)-N-pyridazin-3-ylpiperazine-1-carboxamide] | 101%
O=C(Nc1noc2ccccc12)N1CCN(c2nc(-c3ccccc3)ns2)CC1 [Example 1, N-1,2-Benzisoxazol-3-yl-4-(3-phenyl-1,2,4-thiadiazol-5-yl)piperazine-1-carboxamide] | 100%
O=C(Nc1noc2ccccc12)N1CCN(C(=O)OCc2ccccc2)CC1 [Example 95, Benzyl 4-[(1,2-benzisoxazol-3-ylamino)carbonyl]piperazine-1-carboxylate] | 100%
O=C(Nc1cccnc1)N1CCN(c2nc(-c3cccc(Cl)c3Cl)cs2)CC1 [Example 283, 4-[4-(2,3-Dichlorophenyl)-1,3-thiazol-2-yl]-N-pyridin-3-ylpiperazine-1-carboxamide] | 102%
O=C(Nc1noc2ccccc12)N1CCN(c2nc(N3CCCCC3)ns2)CC1 [Example 17, N-1,2-Benzisoxazol-3-yl-4-(3-piperidin-1-yl-1,2,4-thiadiazol-5-yl)piperazine-1-carboxamide] | 95%

Second part, the compound after the results:

inhibition at 1 µM | SMILES
104% | Cc1noc(NC(=O)N2CCN(c3nc(-c4cccc(Cl)c4)cs3)CC2)c1C [Example 276, 4-[4-(3-Chlorophenyl)-1,3-thiazol-2-yl]-N-(3,4-dimethylisoxazol-5-yl)piperazine-1-carboxamide]
102% | Cc1noc(NC(=O)N2CCN(c3nc(-c4ccc(F)cc4F)cs3)CC2)c1C [Example 260, 4-[4-(2,4-Difluorophenyl)-1,3-thiazol-2-yl]-N-(3,4-dimethylisoxazol-5-yl)piperazine-1-carboxamide]
100% | COc1cccc(-c2csc(N3CCN(C(=O)Nc4onc(C)c4C)CC3)n2)c1 [Example 277, N-(3,4-Dimethylisoxazol-5-yl)-4-[4-(3-methoxyphenyl)-1,3-thiazol-2-yl]piperazine-1-carboxamide]
105% | O=C(Nc1cnccn1)N1CCN(c2nc(-c3cccc(F)c3)cs2)CC1 [Example 229, 4-[4-(3-Fluorophenyl)-1,3-thiazol-2-yl]-N-pyrazin-2-ylpiperazine-1-carboxamide]
106% | Cc1noc(NC(=O)N2CCC(c3nc(-c4ccc(F)cc4)cs3)CC2)c1C [Example 236, N-(3,4-Dimethylisoxazol-5-yl)-4-[4-(4-fluorophenyl)-1,3-thiazol-2-yl]piperidine-1-carboxamide]
104% | Cc1noc(NC(=O)N2CCN(c3nc(-c4cccc(C(F)(F)F)c4)cs3)CC2)c1C [Example 278, N-(3,4-Dimethylisoxazol-5-yl)-4-{4-[3-(trifluoromethyl)phenyl]-1,3-thiazol-2-yl}piperazine-1-carboxamide]
106% | O=C(Nc1cnccn1)N1CCN(c2nc(-c3ccccc3)cs2)CC1 [Example 166, 4-(4-Phenyl-1,3-thiazol-2-yl)-N-pyrazin-2-ylpiperazine-1-carboxamide]
103% | Cc1noc(NC(=O)N2CCC(c3nc(-c4ccccc4)cs3)CC2)c1C [Example 190, N-(3,4-Dimethylisoxazol-5-yl)-4-(4-phenyl-1,3-thiazol-2-yl)piperidine-1-carboxamide]
100% | O=C(Nc1cccnc1)N1CCN(c2nc(-c3ccccc3)cs2)CC1 [Example 94, 4-(4-Phenyl-1,3-thiazol-2-yl)-N-pyridin-3-ylpiperazine-1-carboxamide]
94% | Cc1cccc(-c2csc(N3CCN(C(=O)Nc4cccnc4)CC3)n2)c1 [Example 275, 4-[4-(3-Methylphenyl)-1,3-thiazol-2-yl]-N-pyridin-3-ylpiperazine-1-carboxamide]
106% | O=C(Nc1cccnn1)N1CCN(c2nc(-c3cccc(F)c3)cs2)CC1 [Example 228, 4-[4-(3-Fluorophenyl)-1,3-thiazol-2-yl]-N-pyridazin-3-ylpiperazine-1-carboxamide]
106% | O=C(Nc1cccnc1)N1CCN(c2nc(-c3cccc(F)c3F)cs2)CC1 [Example 262, 4-[4-(2,3-Difluorophenyl)-1,3-thiazol-2-yl]-N-pyridin-3-ylpiperazine-1-carboxamide]
86% | Cc1cccc(-c2csc(N3CCN(C(=O)Nc4onc(C)c4C)CC3)n2)c1 [Example 280, N-(3,4-Dimethylisoxazol-5-yl)-4-[4-(3-methylphenyl)-1,3-thiazol-2-yl]piperazine-1-carboxamide]
128% | Cc1noc(NC(=O)N2CCN(c3nc(-c4cccc(Cl)c4Cl)cs3)CC2)c1C [Example 284, 4-[4-(2,3-Dichlorophenyl)-1,3-thiazol-2-yl]-N-(3,4-dimethylisoxazol-5-yl)piperazine-1-carboxamide]
